Test results as given in patent EP1743643A1, “New formulations of substituted pyrazoline compounds” (LABORATORIOS DEL DR. ESTEVE, S.A., priority 2005, dated 2007).

Columns and labels:
[1] = target: T1, CB1-Receptor (Homo sapiens, UniProt P21554); test: In-vitro determination of affinity to CB1 receptor (radioligand [3H]-CP55940); assay type: binding
T1 construct: purchased Receptor Biology, Inc
Description: (§1) The in-vitro determination of the affinity of the inventive substituted pyrazoline compounds to CB1/CB2-Rezeptors is carried out as described in the publication of Ruth A. Ross, Heather C. Brockie et al., "Agonist-inverse agonist characterization at CB1 and CB2 cannabinoid receptors of L-759633, L759656 and AM630", British Journal of Pharmacology, 126, 665-672, (1999), whereby the transfected human CB1 and CB2 receptors of Receptor Biology, Inc. are used. The radioligand used for both receptors is [^3H]-CP55940. The respective parts of the description is hereby incorporated by reference and forms part of the present disclosure.
(§2) The affinity of the inventive substituted pyrazoline compounds to CB1/CB2 receptors was determined as described above.

[2] = target: T2, CB2-Receptor (Homo sapiens, UniProt P34972); test: In-vitro determination of affinity to CB2 receptor (radioligand [3H]-CP55940); assay type: binding
T2 construct: purchased Receptor Biology, Inc
T2 sequence (P34972 whole entry): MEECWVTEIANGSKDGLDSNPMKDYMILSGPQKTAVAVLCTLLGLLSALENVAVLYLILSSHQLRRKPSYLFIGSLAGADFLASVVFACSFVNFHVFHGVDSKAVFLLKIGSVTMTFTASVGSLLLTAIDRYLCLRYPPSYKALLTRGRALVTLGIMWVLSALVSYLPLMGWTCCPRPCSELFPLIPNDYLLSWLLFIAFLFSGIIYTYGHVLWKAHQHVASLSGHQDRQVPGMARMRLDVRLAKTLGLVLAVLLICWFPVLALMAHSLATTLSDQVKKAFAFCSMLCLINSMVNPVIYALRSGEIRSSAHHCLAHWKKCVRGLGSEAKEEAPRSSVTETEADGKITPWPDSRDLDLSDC
Description: as §1, §2

[3] = system: male mice B6 Lep ob/ob; test: In-vivo testing for regulation of triglycerides in blood, obese mice on high fat diet; conditions: for triglicerides blood levels (result in words): obese mice fed with high fat diet
Source text: The study was done using six weeks old male mice B6 Lep ob/ob, obtained from Charles River (France). Mice were divided in 3 groups : I (control), II (vehicle), III (example 0).
The animals of the group I received the standard diet (D-12450B, Research Diets, NJ, USA).
The animals of the groups II and III were fed with a High Fat Diet (D-12492, Research Diets, NJ, USA), in both cases for 7 weeks (References 1 and 2).
The animals of the groups III were fed with a High Fat Diet (D-12492, Research Diets, NJ, USA), in both cases for 7 weeks (References 1 and 2).
At the end of the feeding period of 7 weeks, it was started the treatment period (14 days): Group II mice received the vehicle (10 ml/kg/day, po, of the aqueous solution of acacia gum, 5% WN). Group III was administered with 30 mg/kg/day, po, of the inventive compound 5-(4-chlorophenyl)-1-(2,4-dichlorophenyl)-4,5-dihydro-pyrazole-3-carboxylic acid according to Example 0. Group I didn't received any treatment. The three groups of mice had the same diet than in the previous period.
At the end of the 14 days period of treatment, the blood levels of triglicerides of the animals were determined.
The analysis of the whole blood samples was done using test strips "Lipid panel" and the photometric Analyzer Cardio-Check Test System, from PA Instruments Polymer Technology Systems Indianapolis, IN-46268, USA (Distributed in Spain by Novalab Iberica S.A.L, Madrid, Spain).

T1 sequence (P21554 whole entry): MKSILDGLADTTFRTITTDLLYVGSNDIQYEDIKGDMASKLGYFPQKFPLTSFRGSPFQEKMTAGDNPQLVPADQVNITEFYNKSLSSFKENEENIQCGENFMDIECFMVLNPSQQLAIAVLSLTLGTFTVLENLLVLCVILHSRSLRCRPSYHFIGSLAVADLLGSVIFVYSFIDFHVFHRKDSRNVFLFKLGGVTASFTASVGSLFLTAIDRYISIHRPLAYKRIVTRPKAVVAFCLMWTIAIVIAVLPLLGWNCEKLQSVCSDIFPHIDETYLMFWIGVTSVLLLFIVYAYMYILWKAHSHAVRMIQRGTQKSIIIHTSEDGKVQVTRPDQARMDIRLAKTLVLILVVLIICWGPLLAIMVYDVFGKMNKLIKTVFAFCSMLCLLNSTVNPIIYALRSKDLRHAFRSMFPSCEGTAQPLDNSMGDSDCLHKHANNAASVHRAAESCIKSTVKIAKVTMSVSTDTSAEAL

| Compound | Ki [1] | Ki [2] | Triglicerides, whole blood levels (mg/dl) ([3]; High Fat diet, 30 mg/kg/day po, 14 days of treatment, B6 Lep ob/ob mice) | triglicerides blood levels (result in words) [3] | triglicerides blood levels (result in words) ([3]; listed as Example 8) | Relative levels ([3]; triglicerides relative to Group I (standard diet, 100%), High Fat diet, 30 mg/kg/day po, 14 days) |
| --- | --- | --- | --- | --- | --- | --- |
| O=C(NN1CCCCC1)C1=NN(c2ccc(Cl)cc2Cl)C(c2ccc(Cl)cc2)C1 (stereo not shown) [Example 1, N-piperidinyl-5-(4-chlorophenyl)-1-(2,4-dichlorophenyl)-4,5-dihydro-1H-pyrazole-3-carboxamide] | < 0.025 µM | > 1 µM |  |  |  |  |
| O=C(O)C1=NN(c2ccc(Cl)cc2Cl)C(c2ccc(Cl)cc2)C1 (stereo not shown) [Example 0, 5-(4-chlorophenyl)-1-(2,4-dichlorophenyl)-4,5-dihydro-pyrazole-3-carboxylic acid] |  |  | 67.5 (N.S.) mg/dl | inhibitor of high blood levels of triglicerides | improved the triglicerides blood levels | 110.6% |
| O=C(C1=NN(c2ccc(Cl)cc2Cl)C(c2ccc(Cl)cc2)C1)N1CCCCC1 (stereo not shown) [Example 5, [5-(4-Chloro-phenyl)-1-(2,4-dichloro-phenyl)-4,5-dihydro-1H-pyrazol-3-yl]-piperidin-1-yl-methanone] |  | ~1 µM |  |  |  |  |
